In article PMC7005530, “A selective androgen receptor modulator SARM‐2f activates androgen receptor, increases lean body mass, and suppresses blood lipid levels in cynomolgus monkeys” (Pharmacology Research & Perspectives, 2020):

Tests used:
[1] = Plasma lipid levels after 4-week treatment; assay type: in vivo, cynomolgus monkey; conditions: after 4 wks; SARM‐2f 1, 3, 10 mg/kg daily p.o.; TE 2 mg/kg every 2 wks; vs vehicle
Experimental: The monkeys were divided into five groups by weight randomization (MiTOX system ver2.0, Mitsui E & S Systems Research Inc) on the last day of the habituation period. SARM‐2f was orally administered at daily doses of 1, 3, or 10 mg/kg for 4 weeks between 9:00 and 11:00 hours, using 0.5% w/v methylcellulose as the vehicle. TE was injected intramuscularly on Day 0 and Day 13; the dosing start was set at Day 0 at a dose of 2 mg/kg using sesame oil as the vehicle. The route of administration and dose of TE was selected according to the route and dose mentioned in the clinical indications. BW was measured every week before dosing (between 8:30 and 9:00 hours), and LBM was measured every 2 weeks after dosing and before feeding (between 11:30 and 14:30 hours) using an X‐ray bone density measuring device (Discovery, HOLOGIC USA). Blood collection for lipid profiles was conducted on the day after the completion of the four‐week multiple administration of SARM‐2f or TE. Plasma levels of total cholesterol (T‐chol), HDL‐c, low‐density lipoprotein cholesterol (LDL‐c), triglyceride (TG), alanine aminotransferase (ALT), and […] (AST) were measured by an automatic JCA‐BM8 analysis system (JEOL Ltd.). Plasma lipoprotein (a) (Lp (a)) levels were measured using a multiplate absorbance measuring system (Multiscan Ascent, Thermo Fisher Scientific KK). […]

[2] = Liver function tests (AST, ALT) after 4-week treatment; assay type: in vivo, cynomolgus monkey; conditions: after 4 wks; SARM‐2f 1, 3, 10 mg/kg daily p.o.; TE 2 mg/kg every 2 wks; vs vehicle
Experimental: The monkeys were divided into five groups by weight randomization (MiTOX system ver2.0, Mitsui E & S Systems Research Inc) on the last day of the habituation period. SARM‐2f was orally administered at daily doses of 1, 3, or 10 mg/kg for 4 weeks between 9:00 and 11:00 hours, using 0.5% w/v methylcellulose as the vehicle. TE was injected intramuscularly on Day 0 and Day 13; the dosing start was set at Day 0 at a dose of 2 mg/kg using sesame oil as the vehicle. The route of administration and dose of TE was selected according to the route and dose mentioned in the clinical indications. BW was measured every week before dosing (between 8:30 and 9:00 hours), and LBM was measured every 2 weeks after dosing and before feeding (between 11:30 and 14:30 hours) using an X‐ray bone density measuring device (Discovery, HOLOGIC USA). Blood collection for lipid profiles was conducted on the day after the completion of the four‐week multiple administration of SARM‐2f or TE. Plasma levels of total cholesterol (T‐chol), HDL‐c, low‐density lipoprotein cholesterol (LDL‐c), triglyceride (TG), alanine aminotransferase (ALT), and […] (AST) were measured by an automatic JCA‐BM8 analysis system (JEOL Ltd.). Plasma lipoprotein (a) (Lp (a)) levels were measured using a multiplate absorbance measuring system (Multiscan Ascent, Thermo Fisher Scientific KK).
(§1) In the reporter assays, EC50 was calculated using Graph Pad Prism version 6. The effects of SARM‐2f or TE on BW and LBM were analyzed by t test, with Bonferroni correction for repeated measurements.

[3] = TE intramuscular 20 mg/kg, monkeys, cited from earlier work
[4] = target: T1, rat AR (Rattus norvegicus, UniProt P15207); assay: AR reporter assay (MMTV-luc) in COS7 cells expressing rat AR; assay type: cell-based; design: Emax: dose or concentration left out as unconfirmed
T1 construct: expressed in transfected cells; host or cells: COS7
T1 sequence (P15207 1-902): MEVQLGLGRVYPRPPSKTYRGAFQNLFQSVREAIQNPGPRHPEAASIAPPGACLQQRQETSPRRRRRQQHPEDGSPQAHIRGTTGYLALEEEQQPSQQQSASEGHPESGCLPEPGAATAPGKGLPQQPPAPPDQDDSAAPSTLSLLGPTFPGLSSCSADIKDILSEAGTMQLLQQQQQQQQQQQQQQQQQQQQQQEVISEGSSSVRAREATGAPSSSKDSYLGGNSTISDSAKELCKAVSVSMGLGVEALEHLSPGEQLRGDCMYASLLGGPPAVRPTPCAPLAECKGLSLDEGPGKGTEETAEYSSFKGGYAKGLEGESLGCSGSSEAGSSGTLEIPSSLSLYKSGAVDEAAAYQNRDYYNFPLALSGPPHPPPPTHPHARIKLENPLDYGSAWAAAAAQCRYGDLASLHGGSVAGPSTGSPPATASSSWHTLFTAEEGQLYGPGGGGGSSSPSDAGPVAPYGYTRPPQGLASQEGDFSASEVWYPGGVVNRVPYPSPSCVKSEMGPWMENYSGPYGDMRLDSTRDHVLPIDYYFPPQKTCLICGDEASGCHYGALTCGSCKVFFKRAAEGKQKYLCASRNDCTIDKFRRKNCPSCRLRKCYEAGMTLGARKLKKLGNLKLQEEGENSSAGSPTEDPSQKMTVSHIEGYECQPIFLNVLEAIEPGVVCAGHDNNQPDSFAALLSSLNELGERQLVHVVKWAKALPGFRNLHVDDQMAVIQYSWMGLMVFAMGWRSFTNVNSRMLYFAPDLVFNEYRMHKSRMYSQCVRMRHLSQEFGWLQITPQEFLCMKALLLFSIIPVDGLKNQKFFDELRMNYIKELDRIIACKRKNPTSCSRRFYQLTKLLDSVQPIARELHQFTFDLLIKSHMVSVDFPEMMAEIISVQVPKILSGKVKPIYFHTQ
Experimental: (§2) Two hours post‐transfection, the cells were plated in 96‐well plates at a density of 2 × 10^4 cells/well, and cultured at 37°C for 3 hours. […] Luciferase activity was measured using the Steady‐Glo Luciferase assay system (Promega) and an Envision Multimode Plate Reader (PerkinElmer).
as §1

[5] = target: T2, cynomolgus monkey AR (Macaca fascicularis, UniProt O97952); assay: AR reporter assay (MMTV-luc) in COS7 cells expressing monkey AR; assay type: cell-based
T2 construct: expressed in transfected cells; host or cells: COS7
T2 sequence (O97952 1-895): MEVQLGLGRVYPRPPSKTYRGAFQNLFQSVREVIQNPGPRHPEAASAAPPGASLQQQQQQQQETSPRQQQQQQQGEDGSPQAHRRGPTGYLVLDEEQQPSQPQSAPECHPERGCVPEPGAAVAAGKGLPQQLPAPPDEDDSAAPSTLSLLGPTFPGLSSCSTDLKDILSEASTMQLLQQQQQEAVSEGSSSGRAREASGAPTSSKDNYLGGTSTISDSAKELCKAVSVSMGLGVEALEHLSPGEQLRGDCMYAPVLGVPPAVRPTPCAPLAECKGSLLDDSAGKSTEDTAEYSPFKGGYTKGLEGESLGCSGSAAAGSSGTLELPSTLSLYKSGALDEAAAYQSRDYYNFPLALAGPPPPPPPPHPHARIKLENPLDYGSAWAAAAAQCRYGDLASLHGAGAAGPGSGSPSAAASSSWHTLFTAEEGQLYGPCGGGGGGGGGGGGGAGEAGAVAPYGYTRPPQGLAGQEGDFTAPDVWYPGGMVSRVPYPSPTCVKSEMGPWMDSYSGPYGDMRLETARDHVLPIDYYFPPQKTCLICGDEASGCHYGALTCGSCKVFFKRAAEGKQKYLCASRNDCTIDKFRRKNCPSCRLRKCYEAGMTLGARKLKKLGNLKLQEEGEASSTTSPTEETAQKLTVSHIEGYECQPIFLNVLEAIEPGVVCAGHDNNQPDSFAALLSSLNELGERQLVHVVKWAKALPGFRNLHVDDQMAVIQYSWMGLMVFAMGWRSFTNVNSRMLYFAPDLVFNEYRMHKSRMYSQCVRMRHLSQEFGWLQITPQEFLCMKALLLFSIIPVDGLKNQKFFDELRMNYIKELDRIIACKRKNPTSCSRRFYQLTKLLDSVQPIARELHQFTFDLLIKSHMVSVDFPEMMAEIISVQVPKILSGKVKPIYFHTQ
Experimental: as §2, §1

[6] = target: T3, human AR (Homo sapiens, UniProt P10275); assay: AR reporter assay (MMTV-luc) in COS7 cells expressing human AR; assay type: cell-based; design: Emax: dose or concentration left out as unconfirmed; conditions: COS-7, read-out: maximal activation level
T3 construct: expressed in transfected cells; host or cells: COS7
T3 sequence (P10275 1-920): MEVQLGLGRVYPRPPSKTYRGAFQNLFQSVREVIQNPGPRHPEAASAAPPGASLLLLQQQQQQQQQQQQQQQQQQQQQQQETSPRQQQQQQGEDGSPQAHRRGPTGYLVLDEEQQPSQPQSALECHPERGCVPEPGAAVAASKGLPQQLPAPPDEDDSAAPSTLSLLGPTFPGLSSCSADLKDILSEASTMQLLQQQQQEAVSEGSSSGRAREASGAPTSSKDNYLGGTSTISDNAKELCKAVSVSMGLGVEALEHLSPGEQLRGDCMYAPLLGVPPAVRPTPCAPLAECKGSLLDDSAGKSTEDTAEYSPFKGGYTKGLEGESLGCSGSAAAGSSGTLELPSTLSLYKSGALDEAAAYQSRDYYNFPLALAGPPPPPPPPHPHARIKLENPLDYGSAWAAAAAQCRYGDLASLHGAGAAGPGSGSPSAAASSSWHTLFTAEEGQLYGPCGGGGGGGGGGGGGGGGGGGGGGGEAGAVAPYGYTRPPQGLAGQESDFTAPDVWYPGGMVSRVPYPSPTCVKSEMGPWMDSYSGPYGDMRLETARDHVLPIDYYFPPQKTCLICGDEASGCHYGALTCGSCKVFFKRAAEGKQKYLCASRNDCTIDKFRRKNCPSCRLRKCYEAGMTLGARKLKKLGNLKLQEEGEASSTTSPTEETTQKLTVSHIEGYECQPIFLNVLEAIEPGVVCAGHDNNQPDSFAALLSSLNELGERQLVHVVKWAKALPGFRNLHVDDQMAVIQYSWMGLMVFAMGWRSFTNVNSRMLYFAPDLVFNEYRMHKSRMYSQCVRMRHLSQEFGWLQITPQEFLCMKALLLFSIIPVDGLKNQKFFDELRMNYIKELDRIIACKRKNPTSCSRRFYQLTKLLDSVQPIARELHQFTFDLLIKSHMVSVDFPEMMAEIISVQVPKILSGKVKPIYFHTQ
Experimental: as §2, §1

CCCCCCC(=O)O[C@H]1CC[C@H]2[C@@H]3CCC4=CC(=O)CC[C@]4(C)[C@H]3CC[C@]12C [TE, Testosterone enanthate, reference compound]
Blood level of HDL‐c [1]: did not affect | Blood level of LDL‐c [1]: increase the LDL‐c level significantly | Blood level of TG [1]: did reduce the TG level | Blood level of T‐chol [1]: did not affect | Lp (a) protein level [1]: did not affect | Blood level of ALT [2]: not changed | Blood level of AST [2]: not changed | effect on BW ([3]; within 4 weeks): significantly increasing the BW | blood testosterone nadir levels [3]: approximately 1500 ng/dL

C[C@](O)(COc1ccc(C#N)cc1)C(=O)Nc1ccc(C#N)c(C(F)(F)F)c1 [ostarine, reference compound]
EC50 [4]: 2.5 nM | Emax ([4]; COS-7, read-out: maximal activation): 112% | EC50 [5]: 2.2 nM | maximal AR activation ([5]; monkey AR, at 1 μmol/L, 1 μmol/L DHT = 100%): 126% | Emax [6]: 141%
